Measured values reported in patent US12365901B2, “Application of mechanical-force sensitive macrophage subset in pancreatic cancer diagnosis or prognosis evaluation” (priority 2023, dated 2025).

Columns and labels:
[1] = test system: THP-1 macrophages; assay: Elastic modulus of siRNA-transfected, PMA-induced THP-1 cells measured by nanoindenter; assay type: cell-based, human; details: compared with control group si-NC; PMA 50 ng/ml for 24 hours
Method: (§1) 1) Transfection of THP-1 cells: the cells were inoculated into a 24-well plate at a density of 2.5×10^5/ well. A transfection reagent was prepared: A: 50 μL of low serum culture medium (Opti-MEM I Reduced Serum Medium, Cat. No. 31985070, Gibco) was added with 3 μL of transfection reagent (Lipofectamine™ RNAiMAX Transfection Reagent, Cat. No. 13778075, Invitrogen). B: 50 μL of low serum culture medium (Opti-MEM I Reduced Serum Medium, Cat. No. 31985070, Gibco) was added with 1 μL of siRNA (RIBO BIO). A and B were mixed and incubated at room temperature for 5 minutes, and 50 μL of the mixture was added with the THP-1 cells to culture overnight.
(§2) 2) A cell suspension was collected and centrifuged at 1000 rpm and room temperature for 5 minutes, a supernatant was removed, and PMA (50 ng/ml, Cat. No. p1585, Sigma) was added to induce for 24 hours.
3) The cell culture medium was replaced by PBS, an instrument was calibrated by using a confocal dish, and then an elastic modulus of the cells was measured.

[2] = test system: THP-1 cells; assay: Flow cytometry of CD11b and CD68 after THP-1 cells are differentiated into macrophages; assay type: cell-based, human; details: flow cytometry after PMA-induced differentiation
Method: as §1, §2
4) The cells were collected, centrifuged, washed with PBS once, then added with 1 μL of Fixable Viability Stain 780 (Cat No. 565388, BD), mixed evenly, incubated on ice for 20 minutes, and washed with an FACS Buffer (2% BSA in PBS) twice. The solution was added with 2.5 μL of FC blocking antibody (Cat. No. 422302, Biolegend), blocked on ice for 20 minutes, then added with 2.5 μL of CD14-BV421 (Cat. No. 563743, BD) antibody and 1 μL of CD11b-PE (Cat. No. 101207, Biolegend) antibody, incubated on ice in the dark for 20 minutes, and then washed with an FACS Buffer twice. The solution was added with 100 μL of cell fixing solution (Cat. No. 00-8222-49, eBioscience), incubated at room temperature in the dark for 40 minutes, and then washed with a prepared membrane permeation solution (Cat. No. 00-8333-56, eBioscience) twice. The cells were resuspended to 100 μL of membrane permeation solution, added with 1.5 μL of CD68-AF647 (Cat. No. 333820, Biolegend), incubated on ice in the dark for 20 minutes, then washed with the membrane permeation solution twice, resuspended to 100 μL of FACS buffer, and detected on a computer.

Row | Substance | elastic modulus of the THP-1 macrophages [1] | fluorescence intensity of CD11b of the THP-1 cells [2] | fluorescence intensity of CD68 of the THP-1 cells [2]
1 | si-Ptk2b_1: siRNA targeting human Ptk2b gene: GGATCATCATGGAATTGTA (SEQID NO. 1) (listed as DNA, chemistry not given here) | significantly reduce | significantly inhibit | significantly inhibit
2 | si-Ptk2b_2: siRNA targeting human Ptk2b gene: GGACGAGGACTATTACAAA (SEQID NO. 2) (listed as DNA, chemistry not given here) | significantly reduce | significantly inhibit | significantly inhibit
3 | si-Ptk2b_3: siRNA targeting human Ptk2b gene: CACATGAAGTCCGATGAGA (SEQID NO. 3) (listed as DNA, chemistry not given here) | significantly reduce | significantly inhibit | significantly inhibit
